Data published in ChEMBL document CHEMBL1134973, “Modification of the pyridine moiety of non-peptidyl indole GnRH receptor antagonists” (Bioorg Med Chem Lett, 2002).

How the values were obtained:
[1] = biological target: T1, Gonadotropin-releasing hormone receptor (Homo sapiens, UniProt P30968); assay: Concentration required for the inhibition of I-125 labeled buserelin binding to the human Gonadotropin-releasing hormone receptor
T1 sequence (P30968 whole entry): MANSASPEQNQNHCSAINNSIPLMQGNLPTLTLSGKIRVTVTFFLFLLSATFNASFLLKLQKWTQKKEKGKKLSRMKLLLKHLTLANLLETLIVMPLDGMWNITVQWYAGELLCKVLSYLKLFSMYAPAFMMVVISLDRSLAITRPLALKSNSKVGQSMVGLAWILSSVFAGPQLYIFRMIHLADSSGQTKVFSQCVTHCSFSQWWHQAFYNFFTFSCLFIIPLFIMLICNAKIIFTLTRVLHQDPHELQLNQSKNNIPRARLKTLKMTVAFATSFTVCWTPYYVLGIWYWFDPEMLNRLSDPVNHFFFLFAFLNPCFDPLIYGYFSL

[2] = biological target: T1, Gonadotropin-releasing hormone receptor; assay: Concentration required for the inhibition of phosphatidyl inositol hydrolysis in chinese hamster ovary cells expressing human GnRH receptor (Gonadotropin Release Hormone receptor); format: functional, cell-based
[3] = Half-life of compound was determined in dogs; format: ADME, organism-based, Canis lupus familiaris; conditions: dog, in vivo
[4] = Oral bioavailability in dog; format: ADME, organism-based, Canis lupus familiaris; conditions: in vivo
[5] = Oral bioavailability of compound was determined in rats; format: ADME, organism-based; conditions: rat, in vivo
[6] = Half-life of compound was determined in rats; format: ADME, organism-based; conditions: rat, in vivo
[7] = Half-life of compound in plasma of dog was determined; format: ADME, organism-based, Canis lupus familiaris

| Structure (SMILES) | IC50 [1] [nM] | IC50 [2] [nM] | half-life [3] [min] | bioavailability [4] [%] | bioavailability [5] [%] | half-life [6] [min] | half-life [7] [min] |
| --- | --- | --- | --- | --- | --- | --- | --- |
| CCCc1cc(CCNC[C@@H](C)c2c(-c3cc(C)cc(C)c3)[nH]c3ccc(C(C)(C)C(=O)N4CC5CCC4CC5)cc23)ccn1 | 4.6 | 62 |  |  |  |  |  |
| CC(=O)OCc1cc(CCNC[C@@H](C)c2c(-c3cc(C)cc(C)c3)[nH]c3ccc(C(C)(C)C(=O)N4CC5CCC4CC5)cc23)ccn1 | 0.4 | 22 |  |  |  |  |  |
| Cc1cc(C)cc(-c2[nH]c3ccc(C(C)(C)C(=O)N4CC5CCC4CC5)cc3c2[C@H](C)CNCCc2cc(C)[n+]([O-])c(C)c2)c1 | 0.5 | 10 | 420 | 29 |  |  |  |
| Cc1cc(C)cc(-c2[nH]c3ccc(C(C)(C)C(=O)N4CC5CCC4CC5)cc3c2[C@H](C)CNCCc2ccnc(C(C)O)c2)c1 (stereo partly specified) | 0.6 | 20 |  |  |  |  |  |
| Cc1cc(C)cc(-c2[nH]c3ccc(C(C)(C)C(=O)N4CC5CCC4CC5)cc3c2[C@H](C)CNCCc2cc[n+]([O-])cc2)c1 | 0.3 | 6.4 |  | 14 |  |  |  |
| Cc1cc(C)cc(-c2[nH]c3ccc(C(C)(C)C(=O)N4CC5CCC4CC5)cc3c2[C@H](C)CNCCc2cc(C)nc(C)c2)c1 | 0.4 | 24 |  |  |  |  |  |
| Cc1cc(C)cc(-c2[nH]c3ccc(C(C)(C)C(=O)N4CC5CCC4CC5)cc3c2[C@H](C)CNCCc2cc[n+]([O-])c(C)c2)c1 | 0.3 | 5.9 | 300 | 25 | 23 | 120 |  |
| Cc1cc(C)cc(-c2[nH]c3ccc(C(C)(C)C(=O)N4CC5CCC4CC5)cc3c2[C@H](C)CNCCc2ccnc(CO)c2)c1 | 0.4 | 7.5 |  | 15 |  |  | 120 |
| CCc1cc(CCNC[C@@H](C)c2c(-c3cc(C)cc(C)c3)[nH]c3ccc(C(C)(C)C(=O)N4CC5CCC4CC5)cc23)ccn1 | 3.3 | 19 |  |  |  |  |  |
| Cc1cc(C)cc(-c2[nH]c3ccc(C(C)(C)C(=O)N4CC5CCC4CC5)cc3c2[C@H](C)CNCCc2ccnc(C)c2)c1 | 0.9 | 8.7 |  | 36 |  |  |  |
| Cc1cc(C)cc(-c2[nH]c3ccc(C(C)(C)C(=O)N4CC5CCC4CC5)cc3c2[C@H](C)CNCCc2ccnc(C(=O)O)c2)c1 | 8.2 | 371 |  |  |  |  |  |
| CC(=O)c1cc(CCNC[C@@H](C)c2c(-c3cc(C)cc(C)c3)[nH]c3ccc(C(C)(C)C(=O)N4CC5CCC4CC5)cc23)ccn1 | 0.6 | 12 |  |  |  |  |  |
| Cc1cc(C)cc(-c2[nH]c3ccc(C(C)(C)C(=O)N4CC5CCC4CC5)cc3c2[C@H](C)CNCCc2ccnc(C#N)c2)c1 | 0.7 | 11 |  |  |  |  |  |
| COC(=O)c1cc(CCNC[C@@H](C)c2c(-c3cc(C)cc(C)c3)[nH]c3ccc(C(C)(C)C(=O)N4CC5CCC4CC5)cc23)ccn1 | 0.9 | 25 |  |  |  |  |  |
| Cc1cc(C)cc(-c2[nH]c3ccc(C(C)(C)C(=O)N4CC5CCC4CC5)cc3c2[C@H](C)CNCCc2ccncc2C)c1 | 0.8 | 48 |  |  |  |  |  |
| COCc1cc(CCNC[C@@H](C)c2c(-c3cc(C)cc(C)c3)[nH]c3ccc(C(C)(C)C(=O)N4CC5CCC4CC5)cc23)ccn1 | 0.7 | 55 |  |  |  |  |  |
| Cc1cc(C)cc(-c2[nH]c3ccc(C(C)(C)C(=O)N4CC5CCC4CC5)cc3c2[C@H](C)CNCCc2ccnc(C(C)(C)O)c2)c1 | 0.7 | 106 |  |  |  |  |  |
| Cc1cc(C)cc(-c2[nH]c3ccc(C(C)(C)C(=O)N4CC5CCC4CC5)cc3c2[C@H](C)CNCCc2cc[n+]([O-])cc2C)c1 | 0.8 | 26 |  |  |  |  |  |
